Measurements from PubChem BioAssay AID1902 (Broad Institute, 2009).
Calls of active or inactive are those of the source.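 The calls were made as follows: active = EC50 no more than a set limit of log units above the highest dose; inactive = the rest.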

Molecular target: S. pyogenes SKKanGAS, kanamycin survival, BacTiterGlo, 6 h
Test: SKKanGAS survival reduction under kanamycin, dose response, streptokinase promoter inhibitor project, SKKanGAS strain, luminescence, dose confirmation (AID 1902);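 also: lower survival reflects blocked streptokinase promoter driving kanamycin resistance gene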

| Compound | EC50 |
| --- | --- |
| O=C(NC(=S)N1CCN(C(c2ccccc2)c2ccccc2)CC1)c1ccc(S(=O)(=O)N2CCOCC2)cc1 | 2.56 µM |
| CCCCCCCCCCCCCCCC[N+](C)(C)C | 3.02 µM |
| CC(C)(C)c1ccc(O)c(N=Cc2c(O)ccc3ccccc23)c1 | 5.12 µM |
| C/C(=N\NC(=O)COc1ccccc1-c1ccccc1)c1ccc(O)cc1O | 3.89 µM |
| CCCCCCCN1N=C(C)C(C(=O)c2ccccc2)C1=O (stereo not drawn) | 1.33 µM |
| Cc1ccccc1NS(=O)(=O)c1ccc(C)c(C(=O)N2CCOCC2)c1 | > 15 µM (inactive) |
| S=C1NC[C@H](CC2CCCCC2)N1CC1CCCCC1 | 7.69 µM |
| COc1cc(C)ccc1NC(=O)Cc1csc(NC(=O)Nc2ccccc2OC)n1 | 15.7 µM |
| CC1CC(C)(C)n2c(O)c(N=NC(N)=S)c3cccc1c32 (stereo not drawn) | 4.84 µM |
| NC(N)=N/N=C/c1ccc(N(c2ccccc2)c2ccccc2)cc1 | 2.06 µM |
| Cc1cc(C)c2nc(-c3ccncc3)cc(C(=O)N3CCN(Cc4ccccc4Cl)CC3)c2c1 | 4.72 µM |
| Cc1ccc(C2C(/C=C3/SC(=S)NC3=O)=C(c3cccs3)Oc3ccccc32)cc1 (stereo not drawn) | 0.643 µM |
| COc1cc2ccccc2cc1C(=O)Nc1ccc(NC(=O)c2cccs2)cc1 | 6.02 µM |
| O=C(N/N=C/c1cc([N+](=O)[O-])cc(Br)c1O)C12CC3CCC(CC(C3)C1)C2 | 5.07 µM |
| Cc1[nH]n(-c2cccc3ccccc23)c(=O)c1/C=N/NC(=O)c1cccc([N+](=O)[O-])c1 | 2.47 µM |
| COc1ccc(C2CC(c3cccs3)=NN2C(=O)c2ccc(Br)o2)cc1 (stereo not drawn) | 5.63 µM |
| O=C(CSc1ccccn1)Nc1nonc1[N+](=O)[O-] | 7.31 µM |
| CC(Oc1ccc(Cl)cc1)C(=O)NNC(=S)NC(=O)c1ccco1 (stereo not drawn) | 0.325 µM |
| S=c1[nH]nc(C2CCCCC2)n1/N=C/c1c(Cl)cccc1Cl | 8.36 µM |
| COC(=O)c1cccc(NC(=S)NCc2ccc(Cl)cc2)c1 | 9.26 µM |
| O=S(=O)(Nc1ccc(O)c(Sc2nc3ccccc3s2)c1)c1cccc2ccccc12 | 3.09 µM |
| Cn1cnnc1SCc1ccc(C(=O)N=Nc2c(O)n(Cc3ccc(Cl)cc3)c3ccccc23)cc1 | 4.51 µM |

| Compound | EC50 |
| --- | --- |
| Cc1ccc(SCC(=O)N2c3ccccc3Sc3ccccc32)cc1 | 3.78 µM |
| CCc1sc(N(C(=O)Cc2ccccc2)c2cccc(F)c2)nc1-c1ccc(C)cc1 | 1.77 µM |
| COc1c(N2CCN(C(=S)NC3CC4CCC3C4)C(C)C2)c(F)cc2c(=O)c(C(=O)O)cn(C3CC3)c12 (stereo not drawn) | 3.09 µM |
| Cc1ccccc1-c1nc2c3ccccc3nc(=S)n2[nH]1 | 4.01 µM |
| CCOC(=O)c1sc2nc3c(SCC(=O)O)cc(C(=O)c4cc(F)ccc4O)cn3c(=O)c2c1C | 2.11 µM |
| CCOc1ccc(N(C)c2ccc(/C=C3/SC(=S)NC3=O)cc2)cc1 | 4.3 µM |
| Clc1ccc(C2C3=C(Nc4ncnn42)c2ccccc2CC3)cc1 (stereo not drawn) | 11.4 µM |
| CN(C(=S)NC(=O)c1ccccc1)C1CCCCC1 | > 15 µM (inactive) |
| COc1ccc(C(=O)O)cc1NC(=S)NC(=O)c1ccc(-c2ccc(Cl)cc2)o1 | 2.3 µM |
| CC(C(=O)NC1C(=O)N2C(C(=O)O)=C(CSc3nnnn3C)CSC12)n1cc(Br)cn1 (stereo not drawn) | < 0.06 µM |
| CCCNC(=O)c1ccc(N2CCC3(CC2)CC(c2ccccc2)=NO3)c(NC(=O)c2ccco2)c1 | 8 µM |
| CC1=NN(c2nc3ccccc3[nH]2)C(=O)C1Cc1ccccc1 (stereo not drawn) | 0.507 µM |
| CC(Oc1ccc(Br)cc1)C(=O)Nc1nc(-c2ccccn2)cs1 (stereo not drawn) | < 0.06 µM |
| O=C(Nc1nnc(C2=COCCO2)o1)c1cccc(C(F)(F)F)c1 | 1.73 µM |
| CC(C)Cn1c(O)c(N=NC(=O)c2cccc(S(=O)(=O)N3CCCCC3)c2)c2ccccc21 | 6.04 µM |
| CSc1ccc(/C=C/c2ccc3cccc(O)c3n2)cc1 | 1.97 µM |
| CCC1=NN(C(=O)c2ccccc2O)C(O)(c2ccccc2)C1 (stereo not drawn) | 1.94 µM |
| Cc1ccc(Oc2ccc3c(c2)C(=O)N(c2cccc4cccnc24)C3=O)cc1 | 2.91 µM |
| NC(=NCCCCCCN=C(N)/N=C(\N)Nc1ccc(Cl)cc1)/N=C(\N)Nc1ccc(Cl)cc1 | 0.789 µM |
| O=C(CCCSc1ccccc1)Nc1nc(-c2ccccn2)cs1 | 6.17 µM |
| O=C(COc1cccc(Oc2ccccc2)c1)Nc1ccc(SC(F)F)cc1 | 13 µM |
| O=C(N/N=C/c1c[nH]c2ccccc12)c1[nH]c2ccc(Br)cc2c1-c1ccccc1 | 2.17 µM |

| Compound | EC50 |
| --- | --- |
| Oc1ccc(/C=N/N(Cc2ccccc2)c2ccccc2)cc1 | 6.16 µM |
| Cn1c(O)c(N=NC(=O)c2cc(-c3cccs3)nc3ccccc23)c2ccccc21 | 2.57 µM |
| O=C(N/N=C\c1c(O)ccc2ccccc12)c1cncc(Br)c1 | 1.31 µM |
| O=S(=O)(Nc1cccc2cccnc12)c1ccccc1 | 4.39 µM |
| COc1cccc(-c2coc3cc4oc(=O)c(CCC(=O)O)c(C)c4cc23)c1 | 5.12 µM |
| Cn1ncc2c(Nc3ccc(Cl)c(Cl)c3)ncnc21 | 4.82 µM |
| O=C(Nc1cccc(-c2nc3ccccc3[nH]2)c1)c1ccc(C(=O)Nc2cccc(-c3nc4ccccc4[nH]3)c2)cc1 | > 15 µM (inactive) |
| COc1ccc2nc(Nc3nc(C)c(C(C)=O)s3)sc2c1 | 6.64 µM |
| O=C(O)CCCNc1cc(N2CCN(C(=O)c3ccco3)CC2)c2noc3c2c1C(=O)c1ccccc1-3 | 6.02 µM |
| O=c1c(O)c(-c2cccs2)oc2ccccc12 | 3.94 µM |
| Cc1cc(C)c(C(=O)Nc2ccc(Br)c(C(F)(F)F)c2)c(C)c1 | 2.79 µM |
| C/C(=N\NC(=O)c1cccc2ccccc12)c1ccccn1 | 3.26 µM |
| CC1CCN(Cc2c(C(=O)N/N=C/c3cc(Cl)ccc3O)nnn2-c2nonc2N)CC1 | 2.67 µM |
| O=C(Nc1ccccc1Cl)/C(Cl)=C(\Cl)S(=O)c1ccccc1 (stereo not drawn) | 1.98 µM |
| Clc1cccc(Cl)c1C1Nc2cccc3cccc(c23)N1 | 8.81 µM |
| Cc1nn(C)c(Cl)c1CN1CCCC(C(=O)Nc2ccc(-c3cscn3)cc2)C1 (stereo not drawn) | > 15 µM (inactive) |
| O=c1[nH]c(CN2CC=C(c3ccccc3)CC2)nc2scc(-c3ccccc3)c12 | 3.17 µM |
| CCc1c(C)sc2nc(C(C)C)nc(SCC(=O)N3CCc4ccccc4C3)c12 | 7.89 µM |
| CC(C)c1ccc2[nH]c(O)c(N=NC(=O)c3cccc(S(=O)(=O)N4CCCCC4)c3)c2c1 | 7.1 µM |
| Cc1nc(-c2ccc(S(=O)(=O)Nc3ccc(Br)cc3Cl)s2)cs1 | 5.14 µM |
| C/C(CC(=O)Nc1ccc(Cl)c(C(F)(F)F)c1)=N\NC(=O)c1cc2ccccc2cc1O | 1.58 µM |
| Oc1ccccc1/C=N/Nc1nc2ccccc2o1 | 2.42 µM |

| Compound | EC50 |
| --- | --- |
| O=C(N/N=C/c1c(O)n(-c2ccccc2Cl)c(=O)c2ccccc12)C1COc2ccccc2O1 (stereo not drawn) | 3.74 µM |
| O=C(Nc1nc(N2C(=O)c3ccccc3C2=O)n(-c2ccccc2)n1)c1ccc(Cl)cc1 | 10.3 µM |
| Cc1cc(O)c(C(C)C)cc1C1(c2cc(C(C)C)c(O)cc2C)OC(=O)c2ccccc21 | 1.8 µM |
| O=C(N[C@H](CO)[C@H](O)c1ccc([N+](=O)[O-])cc1)C(Cl)Cl | 0.973 µM |
| COc1cc(N=c2c([N+](=O)[O-])nn(-c3ccc4c(c3)OCCO4)n2O)cc(OC)c1 | 5.24 µM |
| Cc1nn(-c2ccccc2)c(Cl)c1/C=C1\SC(=S)N(CCCCCC(=O)O)C1=O | 3.04 µM |
| Cc1cccc(C(=O)Nc2scc(-c3ccc(Br)cc3)c2C(=O)O)c1 | 1.89 µM |
| COc1ccc(CN2C(=O)c3ccccc3C(/C=N\OCc3ccc(C)cc3)C2=O)cc1 (stereo not drawn) | 1.29 µM |
| O=C(CC(=O)c1cc(Cl)ccc1O)c1ccccc1 | 1.01 µM |
| O=c1cc(-c2ccccc2Cl)oc2ccc([N+](=O)[O-])c(O)c12 | 3.25 µM |
| Clc1ccc2c(N/N=C/c3ccc(Br)cc3)ccnc2c1 | 3.14 µM |
| O=C(Nc1ccc(OC(F)F)cc1)Nc1cccc(C(F)(F)F)c1 | 6.7 µM |
| Cc1ccc2[nH]c(C(=O)N/N=C/c3ccccc3O)c(C)c2c1 | 1.67 µM |
| C/C(=N\Nc1ccc(Cl)c(Cl)c1)c1ccc(-n2ccnc2)cc1 | 1.86 µM |
| COC(=O)C1=C(C)NC2=C(C(=O)c3ccccc32)C1c1ccc(-c2ccc(C(=O)O)cc2)o1 (stereo not drawn) | 2.76 µM |
| Oc1c(N=Nc2ccccn2)ccc2ccccc12 | 2.58 µM |
| CCOc1cc(-c2cc(-c3ccc(NC(C)=O)cc3)nc(N)c2C#N)ccc1O | 0.919 µM |
| CCOc1ccc(NC(=O)c2c(NC(=O)CNCCN3CCOCC3)sc3c2CCC3)cc1 | 1.1 µM |
| C=C(C)C1Cc2c(C)nn(-c3nc(C)cc(C)n3)c2C1 (stereo not drawn) | 0.694 µM |
| Cc1ccc(C(=O)NC(=S)NNC(=O)c2ccccc2O)cc1 | 0.459 µM |
| CCC(CC)c1nnc(NC(=O)c2ccc3ccccc3n2)s1 | 0.72 µM |
| Cc1ccnc(NS(=O)(=O)c2ccc(NC(=O)c3cc(-c4ccc(Br)cc4)nc4ccccc34)cc2)n1 | 3.34 µM |

| Compound | EC50 |
| --- | --- |
| N=C1SC(c2ccccc2)C(=O)N1c1ncc(Cc2ccccc2Cl)s1 (stereo not drawn) | 0.177 µM |
| CSc1nc2nccc(-c3ccc(-c4ccccc4)cc3)n2n1 | 3.08 µM |
| O=C(NCc1ccccc1)C(=O)Nc1nc(-c2ccccc2)cs1 | 5.23 µM |
| Brc1ccc2[nH]c3c(N4CCc5ccccc5C4)ncnc3c2c1 | 6.22 µM |
| O=[N+]([O-])c1ccc(/C=N/NC(=S)Nc2ccc(Cl)cc2Cl)s1 | 1.75 µM |
| O=C(CSc1ccc(Cl)cc1)NC1=NN(c2ccccc2)C(=O)C1 | 5.54 µM |
| Cn1cc(C(=O)c2ccc(Cl)cc2Cl)cc1C(=O)N/N=C(\N)COc1ccc(Cl)cc1Cl | 1.72 µM |
| CCOC(=O)c1ccc(-n2c(O)c(/C=N/NC(=O)C3COc4ccccc4O3)c3ccccc3c2=O)cc1 (stereo not drawn) | 1.55 µM |
| O=C(c1cc(-c2cccs2)nc2ccccc12)N1CCN(c2ccccc2O)CC1 | 13.4 µM |
| CC(=O)NC(c1ccc(C)cc1)c1cc(Cl)c2cccnc2c1O (stereo not drawn) | 1.42 µM |
| CCOc1cccc(N(C(=O)c2ccco2)C(C(=O)NC2CCCC2)c2cccnc2)c1 (stereo not drawn) | > 15 µM (inactive) |
| COc1ccc2oc(=O)c(-c3csc(Nc4ccc(O)cc4)n3)cc2c1 | 2.16 µM |
| Cc1nc2c(=O)n(C)c(=O)nc-2n(C)n1 | 2.77 µM |
| O=C(Nc1ccccc1C(=O)O)c1cccc(NC(=O)c2ccc(Br)o2)c1 | 4.96 µM |
| O=C(CC1SC(=Nc2ccccc2)N(CCc2c[nH]c3ccccc23)C1=O)Nc1ccccc1F (stereo not drawn) | 7.21 µM |
| NNC(=O)CSc1nc(-c2ccccc2)nc2c1CCCC2 | > 15 µM (inactive) |
| O=C(N/N=C/c1ccc([N+](=O)[O-])o1)c1cn(-c2ccccc2)nc1-c1ccc(F)cc1 | 1.16 µM |
| COc1ccc(OCCn2c(NC(=O)c3ccco3)nc3ccccc32)cc1 | 3.38 µM |
| Cc1cccc(/C=N/NC(=O)c2ccc3c(c2)OCCO3)c1O | 4.39 µM |
| CCCOC(=O)c1ccc(Oc2c(-c3ccc(OC)cc3O)n[nH]c2C)cc1 | 13.5 µM |
